Laboratory results reported in patent US4442124A, “Valproic acid ester with antiepileptic and anticonvulsant activity and pharmaceutical compositions therefrom” (priority 1979, dated 1984).

Legend:
Wister rats = settings: rat, oral, literature value; cited from earlier work
[1] = Pharmacokinetics: plasma levels of valproic acid in Sprague-Dawley rats; type: in vivo; settings: rat
Method: The test tubes are then removed from the ice and are stirred for a period of ten minutes. Centrifugation is carried out for the purpose of separating the phases and the organic phase in n-hexane is directly injected into the gas-chromatographic apparatus.
The study of plasma levels is carried out on Sprague-Dawley albino rats of an average body weight of 215 grams (200-230). Prior to the experiment, the rats fasted for a period of twelve hours. The acid is administered both orally and intravenously, but the ester alone is administered orally. The administrations are carried out with equimolar doses, that is in the dose of 1.39 millimole/kg which corresponds to a dose of 230 mg/kg in the case of the acid administered as the sodium salt and a dose of 360 mg/kg in the case of PEV. Both the acid as well as the ester are dissolved in ethyleneglycol:ethyl alcohol in the proportion of 65-35 (V/V). The concentration of the solution is calculated in a manner to administer 2 cc/kg. After the intervals of time shown in Table 2 in minutes or in hours, the rats in groups of six, are killed by decapitation, the blood is collected and centrifuged for the purpose of obtaining the plasma which is extracted and analyzed as previously described.
On the basis of the results, it is concluded that PEV is absorbed more rapidly, but even more significant, more uniformly compared with valproic acid. An index of the dispersion of the data has been calculated by determining the standard variation in percent with respect to the average value for each group under examination.

[2] = Acute toxicity in Swiss albino mice (Lichtfield and Wilcoxon); settings: in vivo, mouse, mortality within 8 days, read-out: DL50 and range
Method: (§1) The acute toxicity of PEV has been investigated on Swiss albino mice of about 20 grams average weight and in Wister rats of 150±10 grams average weight by administration both through the oral route and by the endoperitoneal route.
(§2) All the animals fasted beginning 12 hours before the experiment. For the experiment, there are used 10 animals that is 5 males and 5 females for each dosage level of treatment. The values of […] are expressed in mg/kg and are calculated on the basis of the mortality which has been determined within 8 days after the administration in accordance with the method of Lichtfield and Wilcoxon.

[3] = Acute toxicity in Wister rats (Lichtfield and Wilcoxon); settings: in vivo, rat, mortality within 8 days, read-out: DL50 and range
Method: as §1, §2

Solubility = type: physicochemical

Compound	DL50 (Merck Index, 9th Edition) (Wister rats) [mg/kg]	Average index of dispersion of plasma levels (standard variation in percent of average) ([1]; in vivo, iv)	Average index of dispersion of plasma levels (standard variation in percent of average) ([1]; in vivo, po)	LD50 at 192 h ([2]; ip, endoperitoneal) [mg/kg]	LD50 at 192 h ([2]; oral) [mg/kg]	LD50 at 192 h ([3]; ip, endoperitoneal) [mg/kg]	LD50 at 192 h ([3]; oral) [mg/kg]	Solubility in alcohols, ethers, ketones (Solubility; alcohols, ethers, ketones)	Solubility in water (Solubility; water)	Absolute biodisponibility ([1]; in vivo) [%]	Difference in biodisponibility in favor of the ester ([1]; in vivo, po) [%]	Presence of PEV (intact ester) in the plasma ([1]; orally, 1.39 mmoles/kg)	bioavailability ([1]; in vivo, 1390 umol/kg, oral, from AUC versus i.v., read-out: Absolute biodisponibility) [%]
CCCC(CCC)C(=O)O [valproic acid, 2-propyl-pentanoic acid]	670	18.3	60.5										
CCCC(CCC)C(=O)OCOC(=O)C(C)(C)C [PEV, pivaloyloxymethyl 2-propyl-pentanoate]			15.2	510	1210	608	1440	soluble in alcohols, ethers, ketones	insoluble in water	72.4	45.5	none of the rats treated with the ester have exhibited the presence of PEV in the plasma	
CCCC(CCC)C(=O)[O-].[Na+] [sodium valproate, reference compound]													49.9
